Assay results from patent US12441730B2, “PRMT5 inhibitors” (Merck Sharp & Dohme LLC, priority 2019, dated 2025).
Read-outs that look alike come from different tables or passages of the source.

Assays:
[1] = biological target: T1, Full-length (FL)-PRMT5-MEP50 enzyme complex (Homo sapiens, UniProt O14744); assay: PRMT5-MEP50 Enzyme Methylation Assay (Version A); type: biochemical
T1 construct: Full-length (FL)-PRMT5-MEP50 enzyme complex (recombinant proteins from baculovirus-transfected Sf21 cells: FL-PRMT5; MW=73837 kDa and FL-MEP50; MW=38614); made in house; host or cells: baculovirus-transfected Sf21 cells
T1 sequence (O14744 whole entry): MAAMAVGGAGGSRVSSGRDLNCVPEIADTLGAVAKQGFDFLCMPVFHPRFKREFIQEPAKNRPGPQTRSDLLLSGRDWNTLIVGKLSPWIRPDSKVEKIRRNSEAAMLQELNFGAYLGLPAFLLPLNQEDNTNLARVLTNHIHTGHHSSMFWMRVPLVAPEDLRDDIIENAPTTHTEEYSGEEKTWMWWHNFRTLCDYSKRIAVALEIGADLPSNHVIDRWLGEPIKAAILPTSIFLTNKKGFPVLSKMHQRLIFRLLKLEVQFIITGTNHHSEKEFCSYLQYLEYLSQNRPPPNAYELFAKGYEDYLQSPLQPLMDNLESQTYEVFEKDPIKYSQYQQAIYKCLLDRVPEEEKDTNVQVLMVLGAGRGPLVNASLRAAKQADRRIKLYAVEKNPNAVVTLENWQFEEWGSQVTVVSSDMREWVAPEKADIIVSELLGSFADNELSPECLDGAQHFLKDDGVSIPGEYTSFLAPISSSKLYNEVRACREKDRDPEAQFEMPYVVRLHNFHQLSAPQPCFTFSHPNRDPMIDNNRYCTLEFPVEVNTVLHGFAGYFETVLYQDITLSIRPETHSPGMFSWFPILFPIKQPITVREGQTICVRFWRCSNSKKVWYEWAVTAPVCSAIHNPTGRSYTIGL
T1 sequence (Q9BQA1 whole entry partner): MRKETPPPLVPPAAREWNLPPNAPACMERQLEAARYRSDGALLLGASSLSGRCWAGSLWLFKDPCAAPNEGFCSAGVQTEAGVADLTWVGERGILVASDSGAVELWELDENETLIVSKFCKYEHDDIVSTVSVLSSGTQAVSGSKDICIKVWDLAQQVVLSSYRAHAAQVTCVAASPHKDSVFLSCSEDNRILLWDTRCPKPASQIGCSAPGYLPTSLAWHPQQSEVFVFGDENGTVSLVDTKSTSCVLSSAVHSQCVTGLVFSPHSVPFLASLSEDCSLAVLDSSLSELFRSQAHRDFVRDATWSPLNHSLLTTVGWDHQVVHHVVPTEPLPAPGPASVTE
Procedure: PRMT5-MEP50 Enzyme Methylation Assay (Version A)
PRMT5-MEP50 biochemical assay is a direct measurement of the methylation activity of the enzyme complex on a short peptide substrate derived from the N-terminus of H4 histone. Methylation experiment was performed with recombinant PRMT5-MEP50 protein complex. The assessment of inhibitory effect of small molecules was measured by the effectiveness of the compounds to inhibit this reaction (EC50).
In this assay, the potency (EC50) of each compound was determined from a twenty-point (1:2 serial dilution; top compound concentration of 100000 nM) titration curve using the following outlined procedure. To each well of a white ProxiPlus 384 well-plate, 100 nL of compound (1% DMSO in final assay volume of 10 μL) was dispensed, followed by the addition of 8 μL of 1× assay buffer (50 mM Bicine pH 8.0, 1 mM DTT, 0.004% Tween20, 0.01% BSA) containing 1.25 nM of Full-length (FL)-PRMT5-MEP50 enzyme complex (recombinant proteins from baculovirus-transfected Sf21 cells: FL-PRMT5; MW=[…] and FL-MEP50; MW=38614) and 1 μL of 150 μM S-(5′-Adenosyl)-L-Methionine Chloride (SAM). A plate were sealed and placed in a 37° C. humidified chamber for a 60 minutes pre-incubation with compound. Subsequently, each reaction was initiated by the addition of 1 μL 1× assay buffer containing 750 nM biotinylated H4R3(Me1) peptide. The final reaction in each well of 10 μL consists of 1.0 nM PRMT5-MEP50, 75 nM biotinylated-peptide, and 15 μM SAM. Methylation reactions were allowed to proceed for 150 minutes in a sealed plate at 37° C. Reactions were immediately quenched by the addition of 1 μL of 5% formic acid. A plate was then frozen and shipped to SAMDI™ Tech Inc. to determine the percent conversion from H4R3(Me1) to H4R3(Me2). Dose-response curves were generated by plotting percent effect (% product conversion; Y-axis) vs. Log 10 compound concentrations (X-axis). EC50 values were determined by non-linear regression according to models for either sigmoidal (4 parameters) or biphasic (7 parameters) dose-response curves.

[2] = test system: symmetric dimethylation of arginine (SDMA) of PRMT5 substrates in MCF-7 cells; assay: PRMT5 Cell Target Engagement (TE) Assay; type: cell-based; conditions: 3 days treatment, SDMA high content imaging
Description: PRMT5 Cell Target Engagement (TE) Assay
The PRMT5 TE assay is a biomarker assay for identifying compounds that inhibit symmetric dimethylation of arginine (SDMA) of PRMT5 substrates. The following substrates have been reported for PRMT5: histone H2A and H4 R3, Histone H3 R2, Histone H3 R8, spliceosome Sm proteins, ribosomal protein RPS10, p53, FEN1, nucleoplasmin, nucleolin, EGFR and EBNA. The assay focuses on detecting symmetrically dimethylated nuclear proteins using high content imaging technology. Detection of the expression of symmetrically dimethylated nuclear proteins is through a mixture of primary rabbit monoclonal antibodies to SDMA (CST 13222), which in turn recognized by an Alexafluor 488 dye-conjugated anti-rabbit IgG secondary antibody. The IN Cell Analyzer 2200 or Opera-Phenix measures nuclear Alexafluor 488 fluorescent dye intensity that is directly related to the level of expression of symmetrically dimethylated nuclear proteins at the single cell level. Nuclear AF488 dye intensities are compared to the mean value for DMSO treated cells (MIN) to report percent of inhibition for each compound-treated well.
In this assay, the cell potency (EC50) of each compound was determined from a ten point (1:3 serial dilution; top compound concentration of 10000 nM) titration curve using the following outlined procedure. Each well of a BD falcon collagen coated black/clear bottom 384-well plate was seeded with 4000 MCF-7 cells in 30 μl media and allowed to attach for 5 h. Media is ATCC-formulated Eagle's Minimum Essential Medium, Catalog No. 30-2003. To make the complete growth medium, the following components were added to the base medium: 0.01 mg/mL human recombinant insulin; fetal bovine serum to a final concentration of 10%. Additional 30 μl of media containing 2× compounds were added to each well. Cells were treated for 3 days in 37° C. CO2 incubator. On day 3, cells were fixed with Cytofix, permeabilized with 0.4% Triton-X-100/Cytofix, and washed with D-PBS without Ca/Mg. Cells were blocked with Licor Odessey blocking reagent for 1 h at room temperature, followed by incubation with anti-SDMA (1:1000) antibody at 4° C. overnight. 1° antibody was removed, followed by three washings with DPBS without Ca/Mg and 0.05% Tween20. Hoechst (5 μg/mL), Cell Mask deep stain (1:2000) and Alexa488-conjugated goat anti-rabbit IgG (2 μg/mL) was added for 1 h at room temperature. A final washing step (three washes) was performed before sealing plate for imaging on In Cell Analyzer 2200 or Opera-Phenix. Images from analyzer were uploaded to Columbus (at WP or BOS) for image analysis. IC50 values were determined by 4 parameters robust fit of percent fluorescence units vs. (Log10) compound concentrations.

[3] = second value of 7 parameter biphasic fit, read-out: Enzyme Methylation Assay Version A (EC50 2)
[4] = single EC50 = 4 parameter single site sigmoidal fit, EC50 1 = first value of 7 parameter biphasic fit, read-out: Enzyme Methylation Assay Version A (EC50 or EC50 1)

EC50 [1, 3] [nM]	EC50 [1, 4] [nM]	EC50 [2] [nM]	EC50 ([2]; Homo sapiens, MCF7, 72 h) [nM]	SMILES
468	1.01	28.7	–	CN1CCC(Oc2nc(Br)cn3cc(C(=O)N4CC[C@]5(Cc6ccccc6CN5)[C@H](O)C4)nc23)C1=O (single isomer, unassigned) [Example 95, (R or S)-3-((6-bromo-2-((3R,3′R)-3′-hydroxy-1,4-dihydro-2H-spiro[isoquinoline-3,4′-piperidine]-1′-carbonyl)imidazo[1,2-a]pyrazin-8-yl)oxy)-1-methylpyrrolidin-2-one]
159	0.231	–	9.48	O=C(c1cn2cc(Br)nc(OC3COC3)c2n1)N1CC[C@]2(Cc3ccccc3CN2)[C@H](O)C1 [Example 12, (6-bromo-8-(oxetan-3-yloxy)imidazo[1,2-a]pyrazin-2-yl)((3R,3’R)-3′-hydroxy-1,4-dihydro-2H-spiro[isoquinoline-3,4′-piperidin]-1′-yl)methanone]
19700	21.4	–	9600	O=C(c1cn2cc(Br)c(O)cc2n1)N1CC[C@]2(Cc3ccccc3CN2)[C@H](O)C1 [Example 130, (6-bromo-7-hydroxy imidazo[1,2-a]pyridin-2-yl)[(3R,3′R)-3′-hydroxy-1,4-dihydro-1′H,2H-spiro[isoquinoline-3,4′-piperidin]-1′-yl]methanone]
335	3.85	–	78.5	Cc1nc(C(F)(F)F)cn2cc(C(=O)N3CC[C@]4(Cc5ccccc5CN4)[C@H](O)C3)nc12 [Example 72, [(3R,3′R)-3′-hydroxy-1,4-dihydro-1′H,2H-spiro[isoquinoline-3,4′-piperidin]-1′-yl][8-methyl-6-(trifluoromethyl)imidazo[1,2-a]pyrazin-2-yl]methanone]
–	11.3	–	66.4	CO[C@H](C)c1cc(N2Cc3cnn(C)c3C2)cn2cc(C(=O)N3CC[C@]4(Cc5ccccc5CN4)[C@H](O)C3)nc12 [Example 231, [(3R,3′R)-3′-hydroxy-1,4-dihydro-1′H,2H-spiro[isoquinoline-3,4′-piperidin]-1′-yl]{8-[(1R)-1-methoxyethyl]-6-(1-methyl-4,6-dihydropyrrolo[3,4-c]pyrazol-5(1H)-yl)imidazo[1,2-a]pyridin-2-yl}methanone]
251	1.92	124	–	COC(C)c1cnc2nc(C(=O)N3CC[C@]4(Cc5ccccc5CN4)[C@H](O)C3)cn2c1 (single isomer, unassigned) [Example 137]
–	202	–	322	Cc1cn2cc(C(=O)N3CC[C@]4(Cc5ccccc5CN4)[C@H](O)C3)nc2c(Br)n1 [Example 138, (8-bromo-6-methylimidazo[1,2-a]pyrazin-2-yl)[(3R,3′R)-3′-hydroxy-1,4-dihydro-1′H,2H-spiro[isoquinoline-3,4′-piperidin]-1′-yl]methanone]
1380	0.629	–	75.8	CN(C)C(=O)c1ccc2nc(C(=O)N3CC[C@]4(Cc5ccccc5CN4)[C@H](O)C3)cn2c1 [Example 2, 2-((3R,3′R)-3′-hydroxy-2,4-dihydro-1H-spiro[isoquinoline-3,4′-piperidin]-1′-ylcarbonyl)-N,N-dimethylimidazo[1,2-a]pyridine-6-carboxamide]
–	836	–	≥ 10000	O=C(c1cn2cc(O)cnc2n1)N1CC[C@]2(Cc3ccccc3CN2)[C@H](O)C1 [Example 129, [(3R,3′R)-3′-hydroxy-1,4-dihydro-1′H,2H-spiro[isoquinoline-3,4′-piperidin]-1′-yl](6-hydroxyimidazo[1,2-a]pyrimidin-2-yl)methanone]
–	56.7	–	122	N#Cc1cc(Cl)c2nc(C(=O)N3CC[C@]4(Cc5ccccc5CN4)[C@H](O)C3)cn2c1 [Example 215, 8-chloro-2-{[(3R,3′R)-3′-hydroxy-1,4-dihydro-1′H,2H-spiro[isoquinoline-3,4′-piperidin]-1′-yl]carbonyl}imidazo[1,2-a]pyridine-6-carbonitrile]
–	184	–	318	COCCN1CC(C2CC2)Cn2cc(C(=O)N3CC[C@]4(Cc5ccccc5CN4)[C@H](O)C3)nc21 (single isomer, unassigned) [Example 143]
≥ 100000	479	–	≥ 10000	O=C(c1cn2ncnc2cn1)N1CC[C@]2(Cc3ccccc3CN2)[C@H](O)C1 [Example 194, [(3R,3′R)-3′-hydroxy-1,4-dihydro-1′H,2H-spiro[isoquinoline-3,4′-piperidin]-1′-yl]([1,2,d]triazolo[1,5-a]pyrazin-6-yl)methanone]
1010	0.43	36.8	–	O=C1Nc2cc(C(=O)N3CC[C@]4(Cc5ccccc5CN4)[C@H](O)C3)ccc2OC1C1CC1 (single isomer, unassigned) [Example 106, (2R or 2S)-2-cyclopropyl-6-((3R,3′R)-3′-hydroxy-1,4-dihydro-2H-spiro[isoquinoline-3,4′-piperidine]-1′-carbonyl)-2H-benzo[b][1,4]oxazin-3(4H)-one]
1500	7.02	–	13.7	CNC(=O)c1cc(Br)cn2cc(C(=O)N3CC[C@]4(Cc5ccccc5CN4)[C@H](O)C3)nc12 [Example 51, 6-bromo-2-((3R,3’R)-3′-hydroxy-1,4-dihydro-2H-spiro[isoquinoline-3,4′-piperidine]-1′-carbonyl)-N-methylimidazo[1,2-a]pyridine-8-carboxamide]
8510	20.8	–	311	Cn1c(=O)c(Br)cn2cc(C(=O)N3CC[C@]4(Cc5ccccc5CN4)[C@H](O)C3)nc12 (single isomer, unassigned) [Example 249]
74100	144	–	3320	O=C(c1ccc2nccn2n1)N1CC[C@]2(Cc3ccccc3CN2)[C@H](O)C1 [Example 188, ((3R,3′R)-3′-hydroxy-1,4-dihydro-2H-spiro[isoquinoline-3,4′-piperidin]-1′-yl)(imidazo[1,2-b]pyridazin-6-yl)methanone]
556	0.395	–	31	Cc1c(C(=O)N2CC[C@]3(Cc4ccccc4CN3)[C@H](O)C2)nn2cc(Br)cnc12 [Example 62, (6-bromo-3-methylpyrazolo[1,5-a]pyrimidin-2-yl)[(3R,3′R)-3′-hydroxy-1,4-dihydro-1′H,2H-spiro[isoquinoline-3,4′-piperidin]-1′-yl]methanone]
